Laboratory results from patent publication US20080255215A1, “Combinations of Alkylalkanolamines and Alkylbisalkanolamines for Antimicrobial Compositions” (priority 2005, published 2008).

Key:
[1] = test system: Pseudomonas aerguinosa (ATCC 15442); assay: Kinetic absorbance assay of bacterial growth (maximum growth slope), amines and amine pairs with KATHON 886MW biocide; format: cell-based; details: KATHON 100 ppm; for Maximum Growth Slope: pH 8.5
Procedure: A kinetic assay was run via absorbance measurements in a 384 well micro-titer plate with 75 μL) plate volume. Pseudomonas aerguinosa (ATCC 15442) was used as the inoculum for this kinetic assay. The organism was grown overnight in Trypticase Soy broth, pelleted, and resuspended in new medium at half its original density. The final inoculum was determined from plate counts on TSA plates spread at the time of use as 8.0×10E10 CFU/mL Each well of the microtiter plate (well volume=75 μL) was filled with 25 μL of a buffered aqueous solution of the amine being tested at the concentration necessary to yield the desired test concentration after dilution, enough Tris buffer to keep the well pH at 8.5, 25 μL of a biocide solution, and 25 μL reconstituted bacterial culture. The pH was adjusted to 8.5 with the buffer. The biocide was KATHON 886MW. The following amines were tested: butylaminoethanol (BAE, a compound according to formula I), butyldiethanolamine (BDEA, a compound according to formula II), octylaminoethanol (OAE, a compound according to formula I), and octyldiethanolamine (ODEA, a compound according to formula II), all at 99% purity): […]
The columns were laid out as follows:
The experiment ran for 20 hours with absorbance measurements taken once every 15 minutes. The data was processed by taking 10 point maximum growth slopes (milliOD per minute) after a 3 hour delay. The results of the above series are shown in FIG. 1, and selected data are tabulated in Table 2, in which biocide (KATHON) was used at a 100 ppm level.

[2] = test system: Pseudomonas aerguinosa (ATCC 27853); assay: End-point absorbance assay of bacterial growth in 384 well microtiter plate, single amines with KATHON 886MW biocide; format: cell-based; details: for Effectiveness as an enhancer for the biocide: amine 400 ppm with KATHON 886MW up to 50 ppm, assessment in words; for End-point absorbance (660 nm): amine 400 ppm, 48 hours growth, pH 8.5
Procedure: A kinetic assay of bacterial growth in a 384 well microtiter plate was monitored by absorbance at 660 nm. The bacteria was Pseudomonas aerguinosa (ATCC 27853). The organism was grown overnight in Trypticase Soy Broth (TSB), pelleted, and resuspended in new medium at half its original density. The final inoculum was determined from plate counts on Trypticase Soy Agar (TSA) plates spread at the time of use as 4.5×10E10 CFU/mL. Each well of the microtiter plate (well volume=75 μL) was filled with 25 μL of a buffered aqueous solution of the amine being tested at the concentration necessary to yield the desired test concentration after dilution, enough Tris buffer to keep the well pH at 8.5, 25 μL of a biocide solution, and 25 μL reconstituted bacterial culture. The biocide solution and bacterial inoculum were mixed with TSB nutrient. The biocide utilized was KATHON 886MW (supplied by Rohm & Haas Company, Springhouse, Pa.). KATHON 886 MW is a 15% active solution of ⅔ CMIT (5-chloro-2-methyl-4-isothiazolin-3-one) and ⅓ MIT (2-methyl-4-isothiazolin-3-one). The experimental assessment of bacterial growth was made through an end-point absorbance measurement taken after 48 hours of growth in the various media. The concentration of the 4 different amines was 400 ppm. The concentration of the biocide was an experimental variable. The amines employed in this experiment were decyloxypropylaminopropylamine (DOPAPA), octylaminoethanol (OAE, a compound according to formula I), octyldiethanolamine (ODEA, a compound according to formula II), and dicyclohexylamine (DCHA). All absorbance values are the averages of at least three replicates.

[3] = amine 2000 ppm, 10 point maximum slope after 3 hour delay

Row | SMILES | Comparative effectiveness (runs of Table 2) ([1]; assessment in words) | Maximum Growth Slope ([1]; amine 1000 ppm) [MilliOD/min] | Maximum Growth Slope [1, 3] [MilliOD/min] | Effectiveness as an enhancer for the biocide [2] | End-point absorbance (660 nm) ([2]; KATHON 886MW loading 0 ppm) | End-point absorbance (660 nm) ([2]; KATHON 886MW loading 12 ppm) | End-point absorbance (660 nm) ([2]; KATHON 886MW loading 25 ppm) | End-point absorbance (660 nm) ([2]; KATHON 886MW loading 50 ppm) | Maximum Growth Slope ([1]; amine 250 ppm) [MilliOD/min] | Maximum Growth Slope ([1]; amine 500 ppm) [MilliOD/min]
1 | CCCCNCCO [BAE, butylaminoethanol] | more effective than BDEA alone | 0.9 | 0.4 | – | – | – | – | – | – | –
2 | CCCCN(CCO)CCO [BDEA, butyldiethanolamine] | – | 1.3 | 0.8 | – | – | – | – | – | – | –
3 | C1CCC(NC2CCCCC2)CC1 [DCHA, dicyclohexylamine, reference compound] | – | – | – | marginal enhancer | 0.14 | 0.14 | 0.10 | 0.07 | – | –
4 | CCCCCCCCCCOCCCNCCCN [DOPAPA, decyloxypropylaminopropylamine, reference compound] | – | – | – | weak or ineffective | app. 0.3 | app. 0.3 | app. 0.3 | app. 0.3 | – | –
5 | CCCCCCCCNCCO [OAE, octylaminoethanol] | – | – | – | excellent enhancer | 0 | 0 | 0 | 0 | 0.4 | −0.1
6 | CCCCCCCCN(CCO)CCO [ODEA, octyldiethanolamine] | – | – | – | moderately effective enhancer | 0.12 | 0.08 | 0.08 | 0.03 | 0.6 | 0.4
